“And” between values parts separate entries of the source, which are not always exact repeats. Equal values may be shown once. Read-outs that look alike come from different tables or passages of the source.
Experiments:
FTPfHT = biological target: T1, FTPfHT (Plasmodium falciparum, UniProt Q7KWJ5); assay: 2-DG uptake by HEK293 cells overexpressing FLAG-tagged PfHT (FTPfHT); type: cell-based; design: the 38–40 kDa band represents full length PfHT; expressed in transfected cells; host or cells: HEK293-FLIP (HEK293); conditions: for remaining activity at 0.001 µM: concentration 0.001 µM, Expt 1-3
T1 sequence (Q7KWJ5 1-504): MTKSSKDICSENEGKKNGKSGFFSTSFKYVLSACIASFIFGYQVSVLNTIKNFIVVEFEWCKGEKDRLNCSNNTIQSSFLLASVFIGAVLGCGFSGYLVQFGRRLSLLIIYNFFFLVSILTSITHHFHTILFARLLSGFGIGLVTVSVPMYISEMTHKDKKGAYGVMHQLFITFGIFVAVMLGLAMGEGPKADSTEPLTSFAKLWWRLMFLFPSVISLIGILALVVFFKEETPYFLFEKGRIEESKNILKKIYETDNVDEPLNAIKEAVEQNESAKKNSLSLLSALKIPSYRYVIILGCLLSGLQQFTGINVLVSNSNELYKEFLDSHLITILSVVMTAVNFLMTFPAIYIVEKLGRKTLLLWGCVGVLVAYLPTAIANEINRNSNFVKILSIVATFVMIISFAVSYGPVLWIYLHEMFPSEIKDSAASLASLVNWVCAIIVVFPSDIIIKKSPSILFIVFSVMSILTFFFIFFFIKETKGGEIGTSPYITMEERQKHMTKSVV
Excerpt: Generation of HEK293 cells overexpressing PfHT and human GLUTs 1–4 were described elsewhere. Briefly, HEK293 cells were transfected with pcDNA3.1 FLII12Pglu-7006 (Addgene), containing the fluorescence resonance energy transfer (FRET) glucose sensor (HEK293-FLIP) and PfHT, human GLUT1 (hGLUT1), hGLUT2, hGLUT3, hGLUT4, hGLUT5 or hGLUT8 using Optifect (Life Technologies) according to manufacturer’s specifications. To increase retention of GLUT8 at the plasma membrane, the dileucine sorting signal E^7E^8XXXLL was modified to R^7R^8XXXLL as described in [17]. Stable transfectants were selected for G418 and hygromycin resistance to select for FRET sensor and hexose transporter, respectively. HEK293-FLIP cells were also used to generate cells stably transfected with FLAG-tagged PfHT (FTPfHT). FLAG tag ([…]) followed by a triple glycine linker and a tobacco etch virus (TEV) protease site (ENLYFQS) followed by a triple glycine linker was added to the N-terminus of PfHT via PCR [18] using Phusion Hot Start II High-Fidelity DNA Polymerase (Fisher Scientific). Single clones were selected by comparing their abilities to transport glucose as assayed via FRET and radiolabeled hexose uptake. In all cell lines, except for HEK293 cells overexpressing hGLUT1 and hGLUT5, native hGLUT1 was knocked down using shRNA as described elsewhere. Transcript levels of the individual GLUTs expressed in each cell line are as described in [13, 15] and in S1 Fig.
Glucose uptake by P. falciparum was performed essentially as described. P. falciparum strain 3D7 was cultured in 100 mm tissue culture dishes (Techno Plastic Products) in a 2% suspension of human erythrocytes and RPMI 1640 medium until reaching > 7.5% parasitemia. Cells were pelleted via centrifugation and resuspended in RPMI 1640 medium. To determine the uptake of radiolabeled glucose into the parasite, parasites were isolated from infected erythrocytes by permeablization with saponin (0.05 w/v), followed by centrifugation, aspiration of supernatant and washing of the pellet 3X with saline solution (135 mM NaCl, 2 mM KCl, 25 mM HEPES, 0.2 mM glucose and 1 mM MgCl2; pH 7.1) to remove cellular debris. WU-1 or DMSO vehicle were added to 100 μl parasites (resuspended in saline) 5 min prior to the addition of 100 μl [^14C]2-DOG (0.2- μCi/ml final concentration). 2-DG uptake was stopped after 2 min by layering the entire reaction over 300 μl of an oil mixture (5:4 mix of dibutyl phthalate / dinonyl phthalate) in Eppendorf tubes and centrifuged at 15,850 × g for 2 mins. The ratio of the estimated intracellular concentration of radiolabel relative to the extracellular concentration were calculated as described. Uptake of radiolabeled hexose into HEK293 cells was measured in glucose-free HBSS as described previously. Briefly, cells were plated at 400,000 cells/well overnight at 37°C in 24-well plates pre-treated with PEI. After 30-min incubation at 37°C in glucose-free HBSS in the presence of vehicle or increasing concentrations of compound, 2-DG uptake was measured in glucose-free HBSS for 4 min at 37°C. Cultures were washed in ice-cold 1X PBS and lysed in 0.1% Triton X-100 in 1X PBS. Radiolabeled hexose uptake was determined by liquid scintillation counting (Ultima Gold, Thermo Fisher) and normalized to total protein per well. Uptake data are plotted as percent uptake relative to vehicle-treated cells. Kinetic analyses were performed using the indicated concentrations of substrate and WU-1, with quenching of uptake after 1 min incubation. Incubation times had been previously determined as being in the linear range of time-dependent radiolabeled hexose uptake (2 min for 2-DG uptake into freed parasites; 2 and 4 min for D-Frc and 2-DG uptake HEK cell lines, respectively). Data were fit by least squares nonlinear regression analysis using GraphPad Prism 6.0 software.

GLUT1 Y293I = tested on: GLUT1 Y293I; design: method as in PMID 8157690; conditions: GLUT1 Y293I vs wild type; cited from earlier work
[1] = FTPfHT, 2-DG Uptake, average of Expt 1-3, read-out: AVE IC50
[2] = FTPfHT, 2-DG Uptake, single experiments Expt 1-3, read-out: IC50
[3] = HEK293, 4 min, FTPfHT, read-out: 2-DG Uptake AVE
[4] = IC50 for inhibition of 2-DG uptake, HEK293 cells overexpressing FTPfHT

## C=C1[C@@H](C)[C@H]2[C@H](Cc3ccccc3)NC(=O)[C@]23OC(=O)/C=C/[C@H](O)CCC[C@@H](C)C/C=C/[C@H]3[C@@H]1O [CB, cytochalasin B]
FTPfHT; [1]
  IC50: 29.9 µM
FTPfHT; [2]
  IC50: 26.6 µM and 30.5 µM and 32.6 µM
FTPfHT; [3]
  remaining activity at 0.001 µM: 100%
FTPfHT; HEK293, 4 min, FTPfHT, concentration 0.3906 µM, read-out: 2-DG Uptake AVE
  remaining activity at 0.3906 µM: 97.8%
FTPfHT; HEK293, 4 min, FTPfHT, concentration 0.7812 µM, read-out: 2-DG Uptake AVE
  remaining activity at 0.7812 µM: 93.2%
FTPfHT; HEK293, 4 min, FTPfHT, concentration 1.56 µM, read-out: 2-DG Uptake AVE
  remaining activity at 1.56 µM: 95.4%
FTPfHT; HEK293, 4 min, FTPfHT, concentration 3.125 µM, read-out: 2-DG Uptake AVE
  remaining activity at 3.125 µM: 90%
FTPfHT; HEK293, 4 min, FTPfHT, concentration 6.25 µM, read-out: 2-DG Uptake AVE
  remaining activity at 6.25 µM: 81.9%
FTPfHT; HEK293, 4 min, FTPfHT, concentration 12.5 µM, read-out: 2-DG Uptake AVE
  remaining activity at 12.5 µM: 72.3%
FTPfHT; HEK293, 4 min, FTPfHT, concentration 25 µM, read-out: 2-DG Uptake AVE
  remaining activity at 25 µM: 56%
FTPfHT; HEK293, 4 min, FTPfHT, concentration 50 µM, read-out: 2-DG Uptake AVE
  remaining activity at 50 µM: 44.6%
FTPfHT; HEK293, 4 min, FTPfHT, concentration 100 µM, read-out: 2-DG Uptake AVE
  remaining activity at 100 µM: 32.2%
FTPfHT; HEK293, 4 min, FTPfHT, concentration 200 µM, read-out: 2-DG Uptake AVE
  remaining activity at 200 µM: 22.7%
FTPfHT; HEK293, 4 min, FTPfHT, concentration 400 µM, read-out: 2-DG Uptake AVE
  remaining activity at 400 µM: 12.9%
FTPfHT; [4]
  IC50: 29.9 ± 1.8 µM
GLUT1 Y293I
  increase of Ki by Y293I mutation: > 100 fold

## Cc1ccc(S(=O)(=O)CCNC(=O)c2c(-c3c(Cl)cccc3Cl)noc2C)cc1 [WU-1, 3-(2,6-dichlorophenyl)-5-methyl-N-[2-(4-methylbenzenesulfonyl)ethyl]-1,2-oxazole-4-carboxamide]
FTPfHT; [1]
  IC50: 19.5 µM
FTPfHT; [2]
  IC50: 19.2 µM and 18.9 µM and 20.5 µM
FTPfHT; [3]
  remaining activity at 0.001 µM: 100%
FTPfHT; HEK293, 4 min, FTPfHT, concentration 0.313 µM, read-out: 2-DG Uptake AVE
  remaining activity at 0.313 µM: 95.9%
FTPfHT; HEK293, 4 min, FTPfHT, concentration 0.625 µM, read-out: 2-DG Uptake AVE
  remaining activity at 0.625 µM: 92.1%
FTPfHT; HEK293, 4 min, FTPfHT, concentration 1.250 µM, read-out: 2-DG Uptake AVE
  remaining activity at 1.25 µM: 81.9%
FTPfHT; HEK293, 4 min, FTPfHT, concentration 2.500 µM, read-out: 2-DG Uptake AVE
  remaining activity at 2.5 µM: 84.9%
FTPfHT; HEK293, 4 min, FTPfHT, concentration 5.0 µM, read-out: 2-DG Uptake AVE
  remaining activity at 5 µM: 80.6%
FTPfHT; HEK293, 4 min, FTPfHT, concentration 10.0 µM, read-out: 2-DG Uptake AVE
  remaining activity at 10 µM: 64.8%
FTPfHT; HEK293, 4 min, FTPfHT, concentration 20 µM, read-out: 2-DG Uptake AVE
  remaining activity at 20 µM: 52.4%
FTPfHT; HEK293, 4 min, FTPfHT, concentration 40 µM, read-out: 2-DG Uptake AVE
  remaining activity at 40 µM: 41.1%
FTPfHT; HEK293, 4 min, FTPfHT, concentration 80 µM, read-out: 2-DG Uptake AVE
  remaining activity at 80 µM: 29.3%
FTPfHT; HEK293, 4 min, FTPfHT, concentration 160 µM, read-out: 2-DG Uptake AVE
  remaining activity at 160 µM: 19.9%
FTPfHT; HEK293, 4 min, FTPfHT, concentration 225 µM, read-out: 2-DG Uptake AVE
  remaining activity at 225 µM: 17.1%
FTPfHT; [4]
  IC50: 19.5 ± 0.5 µM
